Results taken from ChEMBL document CHEMBL1201862, “PubChem BioAssay data set” (2004).
The source made the active and inactive calls.

What was measured:
[1] = cytotoxicity in HEK-293T cells, dose response, cytotoxicity control for TCR NF-kB inhibitor project, luminescence, T-cell screen hits (AID 489026); assay type: functional, cell-based;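 further: cells exposed to compound about 14 hours before the viability readout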
[2] = molecular target: Peroxisome proliferator-activated receptor gamma/Nuclear receptor coactivator 2 (Homo sapiens, UniProt P37231); assay: TR-FRET dose response biochemical High Throughput Screening assay for agonists of the steroid receptor coactivator 2 (SRC-2) recruitment by the peroxisome proliferator-activated receptor gamma (PPAR gamma): non-selective agonists. [Related pubchem assays: 1297, 1032 ]; assay type: functional
Peroxisome proliferator-activated receptor gamma/Nuclear receptor coactivator 2, sequence (P37231 whole entry): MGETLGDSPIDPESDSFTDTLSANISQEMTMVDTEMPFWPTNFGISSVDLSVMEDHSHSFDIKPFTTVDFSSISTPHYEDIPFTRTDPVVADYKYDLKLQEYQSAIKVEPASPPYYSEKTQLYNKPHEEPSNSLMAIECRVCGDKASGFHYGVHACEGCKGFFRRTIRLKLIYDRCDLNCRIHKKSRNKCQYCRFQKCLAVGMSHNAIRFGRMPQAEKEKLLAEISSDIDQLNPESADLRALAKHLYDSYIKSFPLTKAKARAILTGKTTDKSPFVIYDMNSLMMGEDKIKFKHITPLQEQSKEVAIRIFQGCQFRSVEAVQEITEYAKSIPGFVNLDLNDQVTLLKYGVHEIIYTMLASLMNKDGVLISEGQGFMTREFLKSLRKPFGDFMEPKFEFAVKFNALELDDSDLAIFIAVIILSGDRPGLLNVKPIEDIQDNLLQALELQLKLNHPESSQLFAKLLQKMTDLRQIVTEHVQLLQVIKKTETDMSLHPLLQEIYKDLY
Peroxisome proliferator-activated receptor gamma/Nuclear receptor coactivator 2, sequence (Q15596 whole entry, further chain): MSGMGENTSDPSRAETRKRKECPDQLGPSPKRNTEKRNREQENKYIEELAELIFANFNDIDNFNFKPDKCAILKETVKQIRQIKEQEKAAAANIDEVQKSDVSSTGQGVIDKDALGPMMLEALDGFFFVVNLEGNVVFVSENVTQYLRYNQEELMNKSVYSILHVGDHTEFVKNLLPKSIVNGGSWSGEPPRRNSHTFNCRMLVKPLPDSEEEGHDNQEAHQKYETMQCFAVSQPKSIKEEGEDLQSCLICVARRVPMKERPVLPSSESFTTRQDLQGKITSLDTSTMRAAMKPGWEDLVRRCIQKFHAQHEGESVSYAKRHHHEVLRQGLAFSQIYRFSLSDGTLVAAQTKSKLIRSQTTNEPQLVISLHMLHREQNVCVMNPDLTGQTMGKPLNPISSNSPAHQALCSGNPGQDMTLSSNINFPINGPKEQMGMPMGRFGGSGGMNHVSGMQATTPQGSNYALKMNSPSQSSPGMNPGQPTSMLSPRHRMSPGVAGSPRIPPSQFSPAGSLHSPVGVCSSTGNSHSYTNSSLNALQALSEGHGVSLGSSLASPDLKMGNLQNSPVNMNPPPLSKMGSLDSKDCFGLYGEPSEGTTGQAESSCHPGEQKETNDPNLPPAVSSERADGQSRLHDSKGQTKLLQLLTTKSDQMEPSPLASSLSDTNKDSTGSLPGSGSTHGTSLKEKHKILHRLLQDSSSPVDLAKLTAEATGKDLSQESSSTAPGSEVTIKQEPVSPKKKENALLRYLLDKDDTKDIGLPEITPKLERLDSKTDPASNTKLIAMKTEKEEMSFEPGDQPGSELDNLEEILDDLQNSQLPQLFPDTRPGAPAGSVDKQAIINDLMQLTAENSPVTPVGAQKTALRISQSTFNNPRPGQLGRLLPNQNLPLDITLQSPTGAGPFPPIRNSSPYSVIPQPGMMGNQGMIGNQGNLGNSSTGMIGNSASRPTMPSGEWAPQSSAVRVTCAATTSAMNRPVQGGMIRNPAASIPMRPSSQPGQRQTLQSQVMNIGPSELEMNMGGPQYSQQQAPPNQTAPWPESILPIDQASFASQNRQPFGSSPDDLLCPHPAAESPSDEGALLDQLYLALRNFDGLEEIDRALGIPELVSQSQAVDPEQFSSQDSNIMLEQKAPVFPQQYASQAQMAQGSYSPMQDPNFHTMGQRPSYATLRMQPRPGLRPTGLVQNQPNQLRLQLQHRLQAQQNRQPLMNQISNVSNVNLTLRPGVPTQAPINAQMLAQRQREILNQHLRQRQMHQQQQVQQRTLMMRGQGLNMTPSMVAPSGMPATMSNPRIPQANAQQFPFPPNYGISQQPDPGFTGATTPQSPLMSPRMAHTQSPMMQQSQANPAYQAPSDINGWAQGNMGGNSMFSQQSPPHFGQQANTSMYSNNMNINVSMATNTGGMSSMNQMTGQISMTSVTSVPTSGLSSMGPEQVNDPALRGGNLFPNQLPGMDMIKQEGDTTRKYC

[3] = molecular target: Peroxisome proliferator-activated receptor gamma/Nuclear receptor coactivator 3 (Homo sapiens, UniProt P37231); assay: TR-FRET dose response biochemical High Throughput Screening assay for agonists of the steroid receptor coactivator 3 (SRC-3) recruitment by the peroxisome proliferator-activated receptor gamma (PPAR gamma): non-selective agonists. [Related pubchem assays: 1301 (Confirmation screen.), 1048 (Primary screen.)]; assay type: functional
Peroxisome proliferator-activated receptor gamma/Nuclear receptor coactivator 3, sequence (P37231 whole entry): as the sequence (P37231 whole entry) above
Peroxisome proliferator-activated receptor gamma/Nuclear receptor coactivator 3, sequence (Q9Y6Q9 whole entry, further chain): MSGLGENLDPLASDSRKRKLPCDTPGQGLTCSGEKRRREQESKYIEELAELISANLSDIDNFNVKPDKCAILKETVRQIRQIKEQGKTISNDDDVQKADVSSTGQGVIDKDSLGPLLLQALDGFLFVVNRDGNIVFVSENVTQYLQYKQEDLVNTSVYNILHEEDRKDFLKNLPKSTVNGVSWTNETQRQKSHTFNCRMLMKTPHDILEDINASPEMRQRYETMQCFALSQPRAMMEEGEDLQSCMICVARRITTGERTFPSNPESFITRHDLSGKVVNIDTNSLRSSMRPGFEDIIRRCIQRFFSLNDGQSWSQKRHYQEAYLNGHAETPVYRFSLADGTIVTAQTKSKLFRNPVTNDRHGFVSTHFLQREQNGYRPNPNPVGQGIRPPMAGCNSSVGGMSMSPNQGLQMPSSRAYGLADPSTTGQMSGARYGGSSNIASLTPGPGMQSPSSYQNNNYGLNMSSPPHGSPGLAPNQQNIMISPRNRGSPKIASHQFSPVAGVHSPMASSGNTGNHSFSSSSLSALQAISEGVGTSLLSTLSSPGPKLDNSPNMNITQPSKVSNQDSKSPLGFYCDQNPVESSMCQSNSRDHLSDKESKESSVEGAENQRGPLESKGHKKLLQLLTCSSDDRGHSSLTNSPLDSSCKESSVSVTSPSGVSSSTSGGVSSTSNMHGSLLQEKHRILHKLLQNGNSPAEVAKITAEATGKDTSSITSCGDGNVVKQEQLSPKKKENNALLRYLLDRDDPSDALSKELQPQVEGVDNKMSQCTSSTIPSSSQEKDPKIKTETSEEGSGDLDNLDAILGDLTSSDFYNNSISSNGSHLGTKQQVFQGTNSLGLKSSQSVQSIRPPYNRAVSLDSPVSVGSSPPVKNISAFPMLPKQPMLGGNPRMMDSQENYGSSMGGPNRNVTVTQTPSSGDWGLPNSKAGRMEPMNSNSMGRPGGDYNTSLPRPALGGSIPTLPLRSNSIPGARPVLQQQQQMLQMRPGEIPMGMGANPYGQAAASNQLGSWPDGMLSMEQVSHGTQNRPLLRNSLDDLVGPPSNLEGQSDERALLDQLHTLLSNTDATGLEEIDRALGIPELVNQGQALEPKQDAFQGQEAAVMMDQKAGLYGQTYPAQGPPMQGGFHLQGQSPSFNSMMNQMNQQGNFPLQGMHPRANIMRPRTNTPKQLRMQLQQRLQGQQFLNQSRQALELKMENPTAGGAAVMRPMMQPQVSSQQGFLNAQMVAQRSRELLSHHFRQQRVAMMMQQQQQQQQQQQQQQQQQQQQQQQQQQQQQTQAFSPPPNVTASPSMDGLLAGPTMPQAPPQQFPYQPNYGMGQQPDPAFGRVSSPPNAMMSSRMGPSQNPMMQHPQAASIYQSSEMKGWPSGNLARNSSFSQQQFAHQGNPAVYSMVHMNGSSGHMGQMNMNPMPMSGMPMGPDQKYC

[4] = molecular target: Peroxisome proliferator-activated receptor gamma/Nuclear receptor coactivator 1 (Homo sapiens, UniProt P37231); assay: TR-FRET dose response biochemical High Throughput Screening assay for agonists of the steroid receptor coactivator 1 (SRC-1) recruitment by the peroxisome proliferator-activated receptor gamma (PPAR gamma): non-selective agonists. [Related pubchem assays (depositor defined):AID1300, AID1808, AID504735, AID631]; assay type: protein assay
[5] = C. albicans growth with fluconazole, confirmation, fluorescence, retest (AID 2467); assay type: functional, cell-based
[6] = NIH-3T3 fibroblast cytotoxicity, dose response, cytotoxicity control, cell-based, fluorescence, Alamar Blue, secondary assay (AID 2327); assay type: functional;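 further: NIH-3T3 mouse fibroblasts cultured with fluconazole at 8 µg/mL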
[7] = inhibitors of firefly luciferase expression or activity, dose response, H4 neuroglioma cells, luminescence (AID 1990); assay type: functional, cell-based
[8] = inhibitors of SNCA 5'UTR-driven reporter translation, confirmation, H4 neuroglioma cells, luminescence (AID 1988); assay type: functional, cell-based
[9] = system: BJ; assay: cytotoxicity toward BJ-TERT fibroblasts, dose response, cell-based, RAS-independent, luminescence (AID 1933); assay type: functional; conditions: Homo sapiens
[10] = molecular target: T1, Short transient receptor potential channel 4 (Mus musculus, UniProt Q9QUQ5); assay: mouse TRPC4 channel inhibitors, dose response, cell-based, HEK293 TRPC4/mu-opioid, Fluo-4 calcium (AID 434942); assay type: functional;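 further: potency of inhibitors blocking the TRPC4 calcium response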
T1 sequence (Q9QUQ5 whole entry): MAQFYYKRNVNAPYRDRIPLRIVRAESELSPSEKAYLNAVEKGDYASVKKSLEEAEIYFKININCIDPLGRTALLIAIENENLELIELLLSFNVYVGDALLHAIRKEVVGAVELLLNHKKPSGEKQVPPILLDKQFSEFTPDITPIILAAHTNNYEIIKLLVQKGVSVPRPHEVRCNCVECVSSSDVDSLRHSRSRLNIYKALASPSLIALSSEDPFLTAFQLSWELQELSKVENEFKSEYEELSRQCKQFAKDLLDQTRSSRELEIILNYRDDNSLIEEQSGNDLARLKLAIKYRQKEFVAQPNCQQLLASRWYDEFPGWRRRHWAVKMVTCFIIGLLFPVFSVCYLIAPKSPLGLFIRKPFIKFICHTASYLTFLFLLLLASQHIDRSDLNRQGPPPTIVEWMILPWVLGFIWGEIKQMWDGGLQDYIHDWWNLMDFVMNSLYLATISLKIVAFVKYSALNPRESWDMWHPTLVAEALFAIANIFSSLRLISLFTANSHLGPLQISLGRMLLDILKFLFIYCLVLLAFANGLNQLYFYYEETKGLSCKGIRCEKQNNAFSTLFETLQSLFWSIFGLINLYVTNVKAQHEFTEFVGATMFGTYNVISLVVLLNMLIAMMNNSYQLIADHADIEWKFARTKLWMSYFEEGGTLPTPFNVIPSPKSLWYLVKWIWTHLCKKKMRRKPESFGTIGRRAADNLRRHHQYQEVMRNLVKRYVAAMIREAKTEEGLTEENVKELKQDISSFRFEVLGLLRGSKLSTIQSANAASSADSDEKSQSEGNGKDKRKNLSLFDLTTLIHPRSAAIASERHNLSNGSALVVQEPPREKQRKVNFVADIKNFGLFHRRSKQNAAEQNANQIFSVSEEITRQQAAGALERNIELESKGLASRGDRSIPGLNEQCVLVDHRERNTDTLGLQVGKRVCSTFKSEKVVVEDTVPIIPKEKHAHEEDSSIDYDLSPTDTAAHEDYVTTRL

[11] = cytotoxicity toward DRD oncogenic fibroblasts, dose response, cell-based, non-viral oncogenic, luminescence (AID 1934); assay type: functional; conditions: Homo sapiens
[12] = system: BJ; assay: cells; assay type: functional, cell-based; conditions: Homo sapiens
[13] = system: BJ; assay: cytotoxicity toward BJ-TERT-LT-ST fibroblasts, dose response, cell-based, RAS-independent, luminescence (AID 1935); assay type: functional; conditions: Homo sapiens;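 further: BJ fibroblasts immortalized with TERT plus LT and ST oncogenes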
[14] = Luminescence Cell-Based Dose Response HTS to Identify Inhibitors of 5'UTR Stem-Loop Driven Prion Protein mRNA Translation in H4 Neuroglioblastoma Cells. [Related pubchem assays: 1827 (Project Summary), 1813 (Primary HTS)]; assay type: functional
[15] = molecular target: T1, Short transient receptor potential channel 4; assay: mouse TRPC4 channel activators, dose response, cell-based, HEK293 TRPC4/mu-opioid, Fluo-4 calcium (AID 434937); assay type: functional
[16] = Luminescence Cell-Based Dose Retest to Confirm Inhibitors of Cancer Stem Cells. [Related pubchem assays (depositor defined):AID2717, AID2721]; assay type: functional; conditions: Homo sapiens
[17] = molecular target: T2, Microphthalmia-associated transcription factor (Homo sapiens, UniProt O75030); assay: TRPM1 promoter luciferase signal decrease, dose response, MITF inhibitor project, cell-based, SK-MEL-5, cherry-picked, set 3 (AID 493073); assay type: functional
T2 sequence (O75030 whole entry): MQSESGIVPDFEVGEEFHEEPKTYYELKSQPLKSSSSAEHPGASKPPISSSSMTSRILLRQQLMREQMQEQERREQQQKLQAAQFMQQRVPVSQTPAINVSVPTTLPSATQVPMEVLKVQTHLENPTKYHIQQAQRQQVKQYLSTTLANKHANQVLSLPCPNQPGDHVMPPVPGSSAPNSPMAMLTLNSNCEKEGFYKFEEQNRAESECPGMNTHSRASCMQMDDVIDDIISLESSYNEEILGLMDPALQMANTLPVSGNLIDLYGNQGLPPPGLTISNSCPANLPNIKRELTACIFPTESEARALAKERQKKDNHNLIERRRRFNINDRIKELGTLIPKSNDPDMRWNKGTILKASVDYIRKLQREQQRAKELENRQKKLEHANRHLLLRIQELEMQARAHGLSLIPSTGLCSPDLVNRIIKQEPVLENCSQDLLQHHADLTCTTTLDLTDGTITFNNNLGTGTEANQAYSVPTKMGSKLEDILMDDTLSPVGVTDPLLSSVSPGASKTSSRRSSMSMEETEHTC

[18] = system: INS1; assay: beta cell apoptosis inhibitors, cytokine rescue, dose response, luminescence, retest (AID 449756); assay type: functional, cell-based; conditions: Rattus norvegicus;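 further: cell death triggered by IL-1 beta plus TNF-alpha plus IFN-gamma mixture; protective hits raise ATP signal compared with cytokine alone wells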
[19] = molecular target: Paired box protein Pax-8 (Homo sapiens, UniProt Q06710); assay: inhibitors of PAX8-driven TPO luciferase reporter, dose response, RMG-I cells, cherry-pick (AID 687027); assay type: functional, cell-based;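 further: luciferase reporter driven by Pax8 target thyroperoxidase promoter measured by SteadyGlo luminescence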
Paired box protein Pax-8, sequence (Q06710 whole entry): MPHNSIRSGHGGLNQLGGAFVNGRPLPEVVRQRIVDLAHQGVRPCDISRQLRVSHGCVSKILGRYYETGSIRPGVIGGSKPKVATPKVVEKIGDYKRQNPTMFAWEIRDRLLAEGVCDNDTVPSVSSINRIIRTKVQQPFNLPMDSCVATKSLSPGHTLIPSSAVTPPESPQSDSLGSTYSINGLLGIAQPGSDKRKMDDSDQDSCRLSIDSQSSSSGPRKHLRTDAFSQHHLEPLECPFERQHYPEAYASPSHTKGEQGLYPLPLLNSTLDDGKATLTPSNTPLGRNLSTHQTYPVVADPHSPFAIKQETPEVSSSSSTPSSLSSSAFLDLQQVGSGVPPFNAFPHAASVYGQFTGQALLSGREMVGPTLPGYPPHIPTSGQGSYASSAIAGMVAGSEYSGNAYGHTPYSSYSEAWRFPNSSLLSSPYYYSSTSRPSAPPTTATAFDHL

[20] = growth suppression of beta-catenin-knockout colon cells, dose response, cell-based, HCT116, human colon tumor (AID 1045); assay type: functional;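 further: HCT116 colon tumor cells with beta catenin knocked out; cells exposed to compound for 60 hours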
[21] = growth suppression of PTEN-null colon cells, dose response, cell-based, HCT116 PTEN knockout (AID 1047); assay type: functional;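 further: HCT116 colon tumor cells with PTEN knocked out; cells exposed to compound for 60 hours before readout; potency for loss of cell viability measured by luminescence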
[22] = nonselective inhibitors of cellular cAMP signaling, dose response, counter-screen for MC4R biased antagonist project, cell-based, TR-FRET cAMP detection (AID 602305); assay type: functional;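 further: U2OS cells stimulated with forskolin near its EC80 as the cAMP inducer; potency is for inhibition of forskolin-stimulated cAMP signaling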
[23] = molecular target: Melanocortin receptor 4 (Homo sapiens, UniProt P32245); assay: MC4R antagonist potency on cAMP, dose response, cell-based, TR-FRET, biased antagonists (AID 602298); assay type: functional;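 further: antagonist potency against agonist-stimulated cAMP production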
Melanocortin receptor 4, sequence (P32245 whole entry): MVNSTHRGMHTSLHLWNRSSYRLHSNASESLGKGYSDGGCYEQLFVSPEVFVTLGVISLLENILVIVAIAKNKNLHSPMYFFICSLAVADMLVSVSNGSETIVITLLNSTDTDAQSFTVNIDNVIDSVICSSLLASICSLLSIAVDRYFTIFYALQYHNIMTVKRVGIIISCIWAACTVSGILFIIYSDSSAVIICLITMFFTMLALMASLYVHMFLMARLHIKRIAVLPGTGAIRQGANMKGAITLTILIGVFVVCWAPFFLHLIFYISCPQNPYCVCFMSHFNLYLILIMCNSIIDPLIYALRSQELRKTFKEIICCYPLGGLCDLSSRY

[24] = system: Streptococcus sp. 'group A'; assay: growth inhibition of control SK(-) GAS strain, dose response, counter-screen for streptokinase expression inhibitor project, luminescence, kanamycin, BacTiterGlo, confirmation (AID 1900); assay type: functional, organism-based
[25] = system: Streptococcus; assay: Group A Streptococcus viability loss, dose response, counter-screen for streptokinase expression inhibitor project, luminescence, BacTiterGlo (AID 1915); assay type: functional, organism-based;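 further: potency for reduction of bacterial viability or growth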
[26] = molecular target: T3, Streptokinase A (Streptococcus pyogenes serotype M1, UniProt P10520); assay: S. pyogenes streptokinase expression inhibitors, potency, dose response, plasminogen activation absorbance, OD405 (AID 1914); assay type: functional, Streptococcus pyogenes M1 GAS;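 further: secreted streptokinase activity via plasminogen activation per viability signal from cell pellet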
T3 sequence (P10520 whole entry): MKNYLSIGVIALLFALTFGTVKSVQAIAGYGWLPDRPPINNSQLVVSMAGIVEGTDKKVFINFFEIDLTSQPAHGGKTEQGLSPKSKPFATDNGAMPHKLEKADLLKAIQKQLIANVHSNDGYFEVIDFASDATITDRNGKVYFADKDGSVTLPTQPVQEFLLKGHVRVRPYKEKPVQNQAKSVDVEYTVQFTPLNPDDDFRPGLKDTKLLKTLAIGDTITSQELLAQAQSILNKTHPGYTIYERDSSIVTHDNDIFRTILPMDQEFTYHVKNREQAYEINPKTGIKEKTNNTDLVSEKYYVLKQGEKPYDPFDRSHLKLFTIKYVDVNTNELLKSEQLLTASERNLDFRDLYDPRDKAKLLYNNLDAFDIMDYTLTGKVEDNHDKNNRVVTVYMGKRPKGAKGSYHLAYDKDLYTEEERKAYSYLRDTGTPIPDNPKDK

[27] = cells; assay type: functional, cell-based
[28] = inhibitors of intracellular T. cruzi replication, confirmation, NIH3T3 host cells, beta-gal luminescence (AID 2044); assay type: functional, cell-based;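 further: intracellular parasites grown in NIH/3T3 mouse fibroblasts as host cells; luminescent beta-galactosidase reporter signal from transgenic T. cruzi replicating inside host cells; inhibitors lower the luminescence signal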
[29] = cells; assay type: functional, cell-based; remark: listed apart in the source
[30] = cytotoxicity toward NIH3T3 fibroblasts, dose response, counter-screen, cell-based, ATP luminescence, mouse fibroblasts (AID 2010); assay type: functional;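 further: cells exposed to compound for about 90 hours before reading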
[31] = molecular target: T4, SUMO-activating enzyme (Homo sapiens, UniProt Q9UBT2); assay: SUMOylation inhibitor hit validation, confirmation, SUMOylation inhibitor project, biochemical, AlphaScreen (AID 2018); assay type: functional
[32] = molecular target: T4, SUMO-activating enzyme; assay: inhibitors of in vitro SUMOylation cascade, primary screen, biochemical, HTRF, uHTS (AID 2006); assay type: protein-complex assay

Cc1cc(-c2ccc(C(C)C)c(S(=O)(=O)N3CCN(c4ccccc4)CC3)c2)on1
IC50 [1]: > 80 µM (inactive)

COc1cc(-n2c(=S)[nH]c3ccc(C)cc3c2=O)c(Cl)cc1Cl
EC50 [2]: > 79.4 µM (not active) | EC50 [3]: > 79.4 µM (not active) | EC50 [4]: > 79.4 µM (inactive)

Cn1c(=S)[nH]c2scc(-c3cccs3)c2c1=O
EC50 [5]: 0.361 µM (active) | EC50 [6]: 145 µM (inconclusive) | EC50 [2]: 11.4 µM (not active) | EC50 [3]: > 79.4 µM (not active) | EC50 [4]: 10.5 µM (inactive)

COc1ccc(OC)c(Nc2cc(C)nc3ccc(C)cc23)c1
EC50 [7]: > 120 µM (not active) | EC50 [8]: 6.31 µM (active) | EC50 [9]: 11.7 µM (active) | EC50 [10]: 5.96 µM (active) | EC50 [11]: 9.69 µM (active) | EC50 [12]: 12.3 µM (active) | EC50 [13]: 18.8 µM (active) | EC50 [14]: 44.2 µM (active)

COc1ccc2nc(NS(=O)(=O)c3ccc(NC(C)=O)cc3)sc2c1
EC50 [10]: 3.35 µM (active) | EC50 [15]: 3.76 µM (active)

CCCc1cc(O)nc(SCC(=O)Nc2sc3c(c2C#N)CCCC3)n1
EC50 [10]: 4.73 µM (active)

Cc1cc(NCc2ccccc2)nc(N2CCOCC2)n1
EC50 [10]: 4.73 µM (active)

CCOC(=O)C(C)Sc1nc2c(c(=O)[nH]c(=O)n2C)n1Cc1ccc(Cl)cc1 (stereo not drawn)
EC50 [10]: 0.749 µM (active)

C=CCSC1=Nc2cc(OC)c(OC)cc2C2=NC(=O)CN12
EC50 [2]: > 79.4 µM (not active) | EC50 [3]: > 79.4 µM (not active) | EC50 [4]: > 79.4 µM (inactive)

CSc1oc(-c2ccccc2)nc1S(=O)(=O)c1ccc(C)cc1
EC50 [2]: > 79.4 µM (not active) | EC50 [3]: > 79.4 µM (not active) | EC50 [4]: > 79.4 µM (inactive)

Cc1ccc(NC(=O)/C=C/c2ccc([N+](=O)[O-])s2)c(C)c1
AC50 [16]: 1.3 µM (active) | AC50 [17]: 4.64 µM (active) | AC50 [18]: 4.69 µM (active) | AC50 [19]: 3.16 µM (active) | EC50 [20]: 1 µM (active) | EC50 [21]: 1.03 µM (active)

COCC(C)NC(C(=O)Nc1ccc(Cl)c([N+](=O)[O-])c1)c1ccccc1 (stereo not drawn)
EC50 [10]: 5.96 µM (active)

O=C(Nc1nccs1)c1cc(S(=O)(=O)N2CCOCC2)c(Cl)cc1Cl
IC50 [22]: > 64.6 µM (inactive) | IC50 [23]: > 64.6 µM (inactive)

CSc1c(SCc2ccccc2)cnn(Cc2ccccc2)c1=O
EC50 [24]: 3.38 µM (active) | EC50 [25]: 34.3 µM (active) | EC50 [26]: > 150 µM (not active) | EC50 [2]: 8.09 µM (active) | EC50 [3]: > 79.4 µM (not active) | EC50 [4]: 2.68 µM (active)

CC1CCN(c2c(NCc3ccc(C(=O)N4CCc5ccccc54)cc3)c(=O)c2=O)CC1
EC50 [7]: > 60 µM (not active) | EC50 [8]: 8.86 µM (active) | IC50 [1]: > 80 µM (inactive) | EC50 [14]: 12.3 µM (active)

O=C(COC(=O)C(Cc1ccccc1)NC(=O)c1cccs1)NCc1ccccc1 (stereo not drawn)
IC50 [22]: > 64.6 µM (inactive) | IC50 [23]: 38.6 µM (inactive)

O=C(N/N=C\c1cc(Br)ccc1O)c1ccc(S(=O)(=O)N2CCCCC2)cc1
AC50 [16]: 1.8 µM (active) | EC50 [27]: > 350 µM (not active) | AC50 [17]: 1.78 µM (active) | EC50 [28]: 0.758 µM (active) | AC50 [18]: 0.809 µM (active) | EC50 [29]: > 350 µM (not active) | EC50 [30]: > 60 µM (not active)

O=C(N/N=C/c1ccc(Cl)cc1)c1nc(O)c2cc([N+](=O)[O-])ccc2n1
IC50 [31]: 21.5 µM (active) | IC50 [32]: 22 µM (active)
